Experiments:
Assay in all cases: Radiolabeled ATP kinase assay, panel of 371 kinases (Table S6)
Type in all cases: biochemical
[1] = biological target: T1, panel of 371 human kinases (Homo sapiens, UniProt O00444); conditions: PLK4/SAK; 0.1 μM; 10 μM ATP; read-out: % Enzyme Activity (relative to DMSO controls)
T1 construct: purchased Reaction Biology Corp
Source text: (§1) ; FIG. 38C). […]. Further targeted analyses, such as genetic knock-down or knock-out, may be warranted to parse the role of these additional kinases in our model of neurodegeneration.

[2] = biological target: T2, panel of 371 human kinases (Homo sapiens, UniProt O43293); conditions: ZIPK/DAPK3; 0.1 μM; 10 μM ATP; read-out: % Enzyme Activity (relative to DMSO controls)
T2 construct: purchased Reaction Biology Corp
Source text: as §1

[3] = biological target: T3, panel of 371 human kinases (Homo sapiens, UniProt O94806); conditions: PKCnu/PRKD3; 0.1 μM; 10 μM ATP; read-out: % Enzyme Activity (relative to DMSO controls)
T3 construct: purchased Reaction Biology Corp
Source text: as §1

[4] = biological target: T4, panel of 371 human kinases (Homo sapiens, UniProt O95835); conditions: LATS1; 0.1 μM; 10 μM ATP; read-out: % Enzyme Activity (relative to DMSO controls)
T4 construct: purchased Reaction Biology Corp
Source text: as §1

[5] = biological target: T5, panel of 371 human kinases (Homo sapiens, UniProt P00519); conditions: ABL1; 0.1 μM; 10 μM ATP; read-out: % Enzyme Activity (relative to DMSO controls)
T5 construct: purchased Reaction Biology Corp
T5 sequence (P00519 whole entry): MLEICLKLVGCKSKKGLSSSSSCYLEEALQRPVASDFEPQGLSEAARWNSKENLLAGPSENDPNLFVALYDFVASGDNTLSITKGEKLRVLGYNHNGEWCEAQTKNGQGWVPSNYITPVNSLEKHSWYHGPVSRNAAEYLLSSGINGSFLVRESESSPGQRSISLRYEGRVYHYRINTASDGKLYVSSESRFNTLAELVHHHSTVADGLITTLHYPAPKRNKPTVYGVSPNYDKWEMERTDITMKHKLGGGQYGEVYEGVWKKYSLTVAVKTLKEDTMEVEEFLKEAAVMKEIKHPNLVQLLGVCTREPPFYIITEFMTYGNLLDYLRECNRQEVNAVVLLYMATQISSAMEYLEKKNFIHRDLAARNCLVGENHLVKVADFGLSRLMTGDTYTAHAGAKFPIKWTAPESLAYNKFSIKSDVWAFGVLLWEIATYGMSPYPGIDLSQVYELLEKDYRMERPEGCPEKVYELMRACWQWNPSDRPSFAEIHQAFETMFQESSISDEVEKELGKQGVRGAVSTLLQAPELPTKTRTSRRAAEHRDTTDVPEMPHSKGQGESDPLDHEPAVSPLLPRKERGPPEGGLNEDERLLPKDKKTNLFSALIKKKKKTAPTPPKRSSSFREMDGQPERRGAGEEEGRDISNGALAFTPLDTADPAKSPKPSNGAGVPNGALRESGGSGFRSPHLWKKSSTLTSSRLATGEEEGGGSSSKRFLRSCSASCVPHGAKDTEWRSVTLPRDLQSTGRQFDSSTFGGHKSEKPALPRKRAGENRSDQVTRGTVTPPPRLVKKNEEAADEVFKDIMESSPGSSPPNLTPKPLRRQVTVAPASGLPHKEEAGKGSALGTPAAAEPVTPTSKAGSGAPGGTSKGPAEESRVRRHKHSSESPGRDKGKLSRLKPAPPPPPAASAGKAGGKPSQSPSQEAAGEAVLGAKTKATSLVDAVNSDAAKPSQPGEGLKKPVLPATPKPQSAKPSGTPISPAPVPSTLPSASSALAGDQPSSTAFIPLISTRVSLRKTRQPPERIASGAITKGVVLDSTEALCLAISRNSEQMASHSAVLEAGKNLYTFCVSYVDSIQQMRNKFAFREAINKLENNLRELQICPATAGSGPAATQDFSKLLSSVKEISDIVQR
Source text: as §1

[6] = biological target: T6, panel of 371 human kinases (Homo sapiens, UniProt P07332); conditions: FES/FPS; 0.1 μM; 10 μM ATP; read-out: % Enzyme Activity (relative to DMSO controls)
T6 construct: purchased Reaction Biology Corp
T6 sequence (P07332 whole entry): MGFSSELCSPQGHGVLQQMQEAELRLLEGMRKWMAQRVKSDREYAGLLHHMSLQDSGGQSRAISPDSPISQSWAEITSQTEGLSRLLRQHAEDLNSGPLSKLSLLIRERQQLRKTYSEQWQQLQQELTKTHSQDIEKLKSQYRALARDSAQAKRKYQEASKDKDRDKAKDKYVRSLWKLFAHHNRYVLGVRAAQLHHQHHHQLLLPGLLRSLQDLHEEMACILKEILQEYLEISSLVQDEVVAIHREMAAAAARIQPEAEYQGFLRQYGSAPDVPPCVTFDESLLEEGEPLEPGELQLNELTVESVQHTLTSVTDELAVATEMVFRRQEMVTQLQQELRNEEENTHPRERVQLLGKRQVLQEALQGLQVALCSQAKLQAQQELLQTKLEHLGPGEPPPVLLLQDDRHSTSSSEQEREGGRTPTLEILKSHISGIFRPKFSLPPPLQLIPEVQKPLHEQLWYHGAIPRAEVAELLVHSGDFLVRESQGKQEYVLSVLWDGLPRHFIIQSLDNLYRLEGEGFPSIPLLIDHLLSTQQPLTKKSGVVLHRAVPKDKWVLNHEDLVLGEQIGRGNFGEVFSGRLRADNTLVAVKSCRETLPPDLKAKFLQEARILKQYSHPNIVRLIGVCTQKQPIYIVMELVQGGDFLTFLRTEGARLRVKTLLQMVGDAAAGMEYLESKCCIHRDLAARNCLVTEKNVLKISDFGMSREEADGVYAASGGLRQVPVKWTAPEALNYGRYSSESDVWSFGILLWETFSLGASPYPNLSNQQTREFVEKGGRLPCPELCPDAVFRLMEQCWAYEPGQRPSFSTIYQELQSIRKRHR
Source text: as §1

[7] = biological target: T7, panel of 371 human kinases (Homo sapiens, UniProt P07949); conditions: RET; 0.1 μM; 10 μM ATP; read-out: % Enzyme Activity (relative to DMSO controls)
T7 construct: purchased Reaction Biology Corp
Source text: as §1

[8] = biological target: T8, panel of 371 human kinases (Homo sapiens, UniProt P29323); conditions: EPHB2; 0.1 μM; 10 μM ATP; read-out: % Enzyme Activity (relative to DMSO controls)
T8 construct: purchased Reaction Biology Corp
T8 sequence (P29323 19-1055): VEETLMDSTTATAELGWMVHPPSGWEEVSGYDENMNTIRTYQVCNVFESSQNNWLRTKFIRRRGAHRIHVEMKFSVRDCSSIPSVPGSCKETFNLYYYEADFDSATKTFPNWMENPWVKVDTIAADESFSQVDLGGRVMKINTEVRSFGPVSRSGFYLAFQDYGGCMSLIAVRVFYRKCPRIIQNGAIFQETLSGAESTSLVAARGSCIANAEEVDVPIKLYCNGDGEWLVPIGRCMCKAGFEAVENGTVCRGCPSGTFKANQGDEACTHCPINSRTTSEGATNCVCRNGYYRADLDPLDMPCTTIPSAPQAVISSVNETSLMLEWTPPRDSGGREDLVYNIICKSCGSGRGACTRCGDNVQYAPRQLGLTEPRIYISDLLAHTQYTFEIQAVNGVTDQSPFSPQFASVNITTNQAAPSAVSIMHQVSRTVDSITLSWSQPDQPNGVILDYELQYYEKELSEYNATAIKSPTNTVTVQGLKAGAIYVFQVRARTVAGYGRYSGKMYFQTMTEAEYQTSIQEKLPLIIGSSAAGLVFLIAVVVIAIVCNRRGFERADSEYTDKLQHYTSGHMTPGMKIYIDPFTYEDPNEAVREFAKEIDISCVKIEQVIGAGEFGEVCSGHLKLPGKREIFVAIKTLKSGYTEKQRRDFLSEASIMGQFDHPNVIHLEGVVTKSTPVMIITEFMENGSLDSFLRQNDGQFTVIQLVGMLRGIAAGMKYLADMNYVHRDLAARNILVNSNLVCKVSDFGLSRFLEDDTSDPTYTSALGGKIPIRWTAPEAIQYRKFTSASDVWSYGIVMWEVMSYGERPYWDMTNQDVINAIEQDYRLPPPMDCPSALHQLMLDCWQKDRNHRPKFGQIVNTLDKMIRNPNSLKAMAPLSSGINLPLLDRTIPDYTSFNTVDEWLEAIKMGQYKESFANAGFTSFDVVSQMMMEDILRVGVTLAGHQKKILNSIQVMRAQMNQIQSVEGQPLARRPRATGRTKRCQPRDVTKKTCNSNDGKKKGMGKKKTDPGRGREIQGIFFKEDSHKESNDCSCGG
Source text: as §1

[9] = biological target: T9, panel of 371 human kinases (Homo sapiens, UniProt P29376); conditions: TYK1/LTK; 0.1 μM; 10 μM ATP; read-out: % Enzyme Activity (relative to DMSO controls)
T9 construct: purchased Reaction Biology Corp
Source text: as §1

[10] = biological target: T10, panel of 371 human kinases (Homo sapiens, UniProt P41240); conditions: CSK; 0.1 μM; 10 μM ATP; read-out: % Enzyme Activity (relative to DMSO controls)
T10 construct: purchased Reaction Biology Corp
Source text: as §1

[11] = biological target: T11, panel of 371 human kinases (Homo sapiens, UniProt P48729); conditions: CK1a1; 0.1 μM; 10 μM ATP; read-out: % Enzyme Activity (relative to DMSO controls)
T11 construct: purchased Reaction Biology Corp
Source text: as §1

[12] = biological target: T12, panel of 371 human kinases (Homo sapiens, UniProt P51617); conditions: IRAK1; 0.1 μM; 10 μM ATP; read-out: % Enzyme Activity (relative to DMSO controls)
T12 construct: purchased Reaction Biology Corp
T12 sequence (P51617 whole entry): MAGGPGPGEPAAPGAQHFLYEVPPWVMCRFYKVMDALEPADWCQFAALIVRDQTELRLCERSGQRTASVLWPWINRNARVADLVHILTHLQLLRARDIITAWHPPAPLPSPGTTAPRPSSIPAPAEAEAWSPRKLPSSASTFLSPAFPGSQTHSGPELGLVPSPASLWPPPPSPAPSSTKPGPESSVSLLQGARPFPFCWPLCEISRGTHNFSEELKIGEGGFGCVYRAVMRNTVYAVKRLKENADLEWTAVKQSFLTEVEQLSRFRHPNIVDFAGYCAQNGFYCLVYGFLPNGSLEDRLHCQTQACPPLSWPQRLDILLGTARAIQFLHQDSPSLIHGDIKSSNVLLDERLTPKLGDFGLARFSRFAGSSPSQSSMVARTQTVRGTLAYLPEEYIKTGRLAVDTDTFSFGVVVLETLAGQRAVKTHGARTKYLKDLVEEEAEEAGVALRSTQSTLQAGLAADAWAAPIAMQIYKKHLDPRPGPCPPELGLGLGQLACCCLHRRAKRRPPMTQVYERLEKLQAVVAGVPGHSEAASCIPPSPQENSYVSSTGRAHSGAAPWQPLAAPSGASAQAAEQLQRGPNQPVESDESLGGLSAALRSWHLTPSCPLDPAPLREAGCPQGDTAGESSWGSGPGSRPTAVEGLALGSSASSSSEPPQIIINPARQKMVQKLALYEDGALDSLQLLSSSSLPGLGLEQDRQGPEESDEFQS
Source text: as §1

[13] = biological target: T13, panel of 371 human kinases (Homo sapiens, UniProt P51812); conditions: RSK2; 0.1 μM; 10 μM ATP; read-out: % Enzyme Activity (relative to DMSO controls)
T13 construct: purchased Reaction Biology Corp
Source text: as §1

[14] = biological target: T14, panel of 371 human kinases (Homo sapiens, UniProt P80192); conditions: MLK1/MAP3K9; 0.1 μM; 10 μM ATP; read-out: % Enzyme Activity (relative to DMSO controls)
T14 construct: purchased Reaction Biology Corp
Source text: as §1

[15] = biological target: T15, panel of 371 human kinases (Homo sapiens, UniProt Q05397); conditions: FAK/PTK2; 0.1 μM; 10 μM ATP; read-out: % Enzyme Activity (relative to DMSO controls)
T15 construct: purchased Reaction Biology Corp
Source text: as §1

[16] = biological target: T16, panel of 371 human kinases (Homo sapiens, UniProt Q8IVT5); conditions: KSR1; 0.1 μM; 10 μM ATP; read-out: % Enzyme Activity (relative to DMSO controls)
T16 construct: purchased Reaction Biology Corp
Source text: as §1

[17] = biological target: T17, panel of 371 human kinases (Homo sapiens, UniProt Q8TDC3); conditions: BRSK1; 0.1 μM; 10 μM ATP; read-out: % Enzyme Activity (relative to DMSO controls)
T17 construct: purchased Reaction Biology Corp
T17 sequence (Q8TDC3 whole entry): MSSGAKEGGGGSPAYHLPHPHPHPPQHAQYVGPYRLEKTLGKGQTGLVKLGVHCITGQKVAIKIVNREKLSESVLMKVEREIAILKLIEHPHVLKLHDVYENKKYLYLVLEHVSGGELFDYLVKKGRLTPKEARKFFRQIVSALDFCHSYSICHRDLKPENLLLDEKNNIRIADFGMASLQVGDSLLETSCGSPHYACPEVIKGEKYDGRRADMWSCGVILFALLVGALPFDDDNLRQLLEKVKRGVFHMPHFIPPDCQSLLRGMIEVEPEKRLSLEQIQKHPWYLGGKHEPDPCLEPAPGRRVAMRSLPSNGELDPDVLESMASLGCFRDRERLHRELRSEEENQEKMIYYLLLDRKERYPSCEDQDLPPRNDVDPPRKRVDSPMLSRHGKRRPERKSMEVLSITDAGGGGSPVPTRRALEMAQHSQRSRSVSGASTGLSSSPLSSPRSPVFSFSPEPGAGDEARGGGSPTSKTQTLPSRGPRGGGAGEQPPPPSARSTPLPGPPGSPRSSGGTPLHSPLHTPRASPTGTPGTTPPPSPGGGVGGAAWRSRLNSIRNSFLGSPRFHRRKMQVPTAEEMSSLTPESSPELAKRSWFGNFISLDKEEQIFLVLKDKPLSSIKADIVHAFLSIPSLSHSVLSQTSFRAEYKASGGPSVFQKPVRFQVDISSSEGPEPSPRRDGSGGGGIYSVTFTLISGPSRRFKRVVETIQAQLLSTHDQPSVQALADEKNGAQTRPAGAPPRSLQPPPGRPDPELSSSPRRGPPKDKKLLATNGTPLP
Source text: as §1

[18] = biological target: T18, panel of 371 human kinases (Homo sapiens, UniProt Q9BWU1); conditions: CDK19/cyclin C; 0.1 μM; 10 μM ATP; read-out: % Enzyme Activity (relative to DMSO controls)
T18 construct: purchased Reaction Biology Corp
T18 sequence (Q9BWU1 whole entry): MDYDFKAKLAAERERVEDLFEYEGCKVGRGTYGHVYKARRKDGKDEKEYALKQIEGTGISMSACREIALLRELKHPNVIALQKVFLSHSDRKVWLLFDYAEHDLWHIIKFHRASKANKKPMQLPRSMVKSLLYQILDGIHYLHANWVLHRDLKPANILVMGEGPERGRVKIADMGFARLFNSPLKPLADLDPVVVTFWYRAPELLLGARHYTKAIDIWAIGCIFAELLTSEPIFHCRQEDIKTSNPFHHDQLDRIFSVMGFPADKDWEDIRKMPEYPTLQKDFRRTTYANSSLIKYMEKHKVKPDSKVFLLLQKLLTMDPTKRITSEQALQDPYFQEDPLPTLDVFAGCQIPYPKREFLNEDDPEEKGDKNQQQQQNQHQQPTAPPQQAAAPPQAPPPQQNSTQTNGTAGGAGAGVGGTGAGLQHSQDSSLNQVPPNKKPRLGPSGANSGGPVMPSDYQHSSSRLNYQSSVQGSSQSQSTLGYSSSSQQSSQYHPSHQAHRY
Source text: as §1

[19] = biological target: T19, panel of 371 human kinases (Homo sapiens, UniProt Q9BYT3); conditions: STK33; 0.1 μM; 10 μM ATP; read-out: % Enzyme Activity (relative to DMSO controls)
T19 construct: purchased Reaction Biology Corp
Source text: as §1

[20] = biological target: T20, panel of 371 human kinases (Homo sapiens, UniProt Q9H2K8); conditions: TAOK3/JIK; 0.1 μM; 10 μM ATP; read-out: % Enzyme Activity (relative to DMSO controls)
T20 construct: purchased Reaction Biology Corp
Source text: as §1

[21] = biological target: T21, panel of 371 human kinases (Homo sapiens, UniProt Q9HCP0); conditions: CK1g1; 0.1 μM; 10 μM ATP; read-out: % Enzyme Activity (relative to DMSO controls)
T21 construct: purchased Reaction Biology Corp
Source text: as §1

[22] = biological target: T22, panel of 371 human kinases (Homo sapiens, UniProt Q9NR20); conditions: DYRK4; 0.1 μM; 10 μM ATP; read-out: % Enzyme Activity (relative to DMSO controls)
T22 construct: purchased Reaction Biology Corp
Source text: as §1

[23] = biological target: T23, panel of 371 human kinases (Homo sapiens, UniProt Q9UF33); conditions: EPHA6; 0.1 μM; 10 μM ATP; read-out: % Enzyme Activity (relative to DMSO controls)
T23 construct: purchased Reaction Biology Corp
Source text: as §1

[24] = biological target: T24, panel of 371 human kinases (Homo sapiens, UniProt Q9UIK4); conditions: DAPK2; 0.1 μM; 10 μM ATP; read-out: % Enzyme Activity (relative to DMSO controls)
T24 construct: purchased Reaction Biology Corp
Source text: as §1

SMILES | remaining activity at 0.1 µM [1] | remaining activity at 0.1 µM [2] | remaining activity at 0.1 µM [3] | remaining activity at 0.1 µM [4] | remaining activity at 0.1 µM [5] | remaining activity at 0.1 µM [6] | remaining activity at 0.1 µM [7] | remaining activity at 0.1 µM [8] | remaining activity at 0.1 µM [9] | remaining activity at 0.1 µM [10] | remaining activity at 0.1 µM [11] | remaining activity at 0.1 µM [12] | remaining activity at 0.1 µM [13] | remaining activity at 0.1 µM [14] | remaining activity at 0.1 µM [15] | remaining activity at 0.1 µM [16] | remaining activity at 0.1 µM [17] | remaining activity at 0.1 µM [18] | remaining activity at 0.1 µM [19] | remaining activity at 0.1 µM [20] | further results
CN1CCN(Cc2ccc(-c3cnc4[nH]cc(-c5ccc6[nH]ccc6c5)c4c3)cc2)CC1 [Compound 1, 3-(1H-Indol-5-yl)-5-(4-((4-methylpiperazin-1-yl)methyl)phenyl)-1H-pyrrolo[2,3-b]pyridine, reference compound] | 97% | 108% | 29.1% | 83.6% | 68.2% | 68.2% | 76.7% | 88.6% | 105% | 87.5% | 102% | 86.2% | 105% | 48.2% | 86.3% | 98% | 80.8% | 94.9% | 72.6% | 87.3% | remaining activity at 0.1 µM [21]: 143%; remaining activity at 0.1 µM [22]: 111%; remaining activity at 0.1 µM [23]: 106%; remaining activity at 0.1 µM [24]: 118%
OCCN1CCN(Cc2ccc(-c3cnc4[nH]cc(-c5cccc(Cl)c5)c4c3)cc2)CC1 [Compound 12k, 2-(4-(4-(3-(3-Chlorophenyl)-1H-pyrrolo[2,3-b]pyridin-5-yl)benzyl)piperazin-1-yl)ethan-1-ol] | 93.4% | 99.8% | 13.6% | 84.4% | 76.7% | 77.9% | 91.5% | 98.3% | 117% | 90.8% | 91.6% | 73.2% | 77.3% | 73.7% | 88.5% | 97.3% | 83.6% | 64.8% | 88.6% | 79.8% | remaining activity at 0.1 µM [21]: 116%; remaining activity at 0.1 µM [22]: 101%; remaining activity at 0.1 µM [23]: 98.2%; remaining activity at 0.1 µM [24]: 105%

Reference: patent US12227500B2, “Substituted pyrrolo[2,3-b]pyridines for suppressing toxic endoplasmic reticulum stress” (THE TRUSTEES OF COLUMBIA UNIVERSITY IN THE CITY OF NEW YORK, priority 2018, dated 2025)
